In assay [1] the target is T1, N-type calcium channel (NTCC) (Homo sapiens, UniProt Q00975).
T1 construct: host or cells: IMR32 cells differentiated with dibutyryl cAMP and bromodeoxyuridine
Briefly: FLIPR calcium mobilization assay for N-type calcium channel. It counts as cell-based. To be noted: calcium mobilization in vitro assay; differentiated IMR32 cells. On the procedure: Unless noted otherwise, cell culture reagents were purchased from Mediatech of Herndon, Md. IMR32 cells (American Type Culture Collection, ATCC, Manassas, Va.) were routinely cultured in growth medium consisting of minimum essential medium containing 10% fetal bovine serum (FBS, Hyclone, Logan, Utah), 100 U/mL penicillin, 100 μg/mL streptomycin, 2 mM L-glutamine, 1 mM sodium pyruvate, and 1× MEM non-essential amino acids. 80-90% confluent flasks of cells were differentiated using the following differentiation medium: Growth medium plus 1 mM dibutyryl cyclic AMP (Sigma, St. Louis, Mo.), and 2.5 μM bromodeoxyuridine (Sigma). Cells were differentiated for 8 days by replacing differentiation medium every 2-3 days.
FLIPR Calcium Mobilization Assay for N-Type Calcium Channel.
One day prior to performing this assay, differentiated IMR32 cells were treated with 1× CellStripper, and seeded on poly-D-lysine-coated 96-well clear-bottom black plates (Becton Dickinson, Franklin Lakes, N.J.) at 200,000 cells/well. On the day of the assay, the cell plates were washed with IMR32 buffer (127 mM NaCl, 1 mM KCl, 2 mM MgCl2, 700 μM NaH2PO4, 5 mM CaCl2, 5 mM NaHCO3, 8 mM HEPES, 10 mM glucose, pH 7.4), then pre-stimulated with KCl and loaded as follows: 0.05 mL of IMR32 buffer, 0.05 mL of each compound tested diluted in IMR32 buffer containing 20 μM nitrendipine (Sigma), and 0.1 mL KCl dissolved in IMR32 buffer, plus Fluo-4 were added (3 μM final concentration, Molecular Probes, Eugene, Oreg.). Final test compound concentrations ranged from about 846 pM to about 17 μM, final nitrendipine concentration was 5 μM, and final KCl concentration was 90 mM. After 1 hour, the cells were washed twice with 0.05 mL of each compound is tested in nitrendipine-containing IMR32 buffer (no KCl or Fluo-4), and then replaced with 0.1 mL of each compound tested in nitrendipine-containing IMR32 buffer. Plates were then transferred to a Fluorimetric Imaging Plate Reader (FLIPR^96, Molecular Devices, Inc., Sunnyvale, Calif.) for assay. The FLIPR measured basal Fluo-4 fluorescence for 315 seconds (i.e., 5 minutes and 15 seconds), then added 0.1 mL KCl agonist dissolved in IMR32 buffer and measured fluorescence for another 45 seconds. Final test compound concentrations on the cells after FLIPR read ranged from about 846 pM to about 17 μM, final nitrendipine concentration was 5 μM, and final KCl concentration was 90 mM. Data were collected over the entire time course and analyzed using Excel, Graph Pad Prism (version 3.02, Graph Pad, San Diego, Calif.), or an in-house non-linear regression analysis software.
For orientation: Calcium flux is commonly read through the fluorescence of an indicator in the cells.

In assay [2] the target is T2, recombinant rat L-type calcium channel (LTCC) subunits (α1c, α2δ, and β1) (Rattus norvegicus, UniProt P22002).
T2 construct: expressed in transfected cells
Description: FLIPR calcium mobilization assay for L-type calcium channel. The class given is cell-based. To be noted: calcium mobilization in vitro assay; HEK293 cells expressing rat LTCC. The procedure: Recombinant human embryonal kidney cells (HEK293, ATCC) stably transfected with either N-type calcium channel (NTCC) subunits (α1b, α2δ, and ⊖3) or L-type calcium channel (LTCC) subunits (α1, α2δ, and β1) were routinely cultured in growth medium consisting of Dulbecco's Modified Eagles Medium containing 10% FBS, 100 U/mL penicillin, 100 μg/mL streptomycin, 4 mM L-glutamine, 500 μg/mL geneticin (G418), 20 μg/mL Blasticidin S (InVivogen, San Diego, Calif.) and 500 μg/mL zeocin (InVivogen).
FLIPR Calcium Mobilization Assay for L-Type Calcium Channel.
One day prior to performing this assay, HEK293 cells stably expressing recombinant rat L-type calcium channel (LTCC) subunits (α1c, α2δ, and β1) were trypsinized, then seeded on poly-D-lysine-coated 96-well clear-bottom black plates (Becton Dickinson, Franklin Lakes, N.J.) at 75,000 cells/well. On the day of the assay, the plates were washed with LTCC wash buffer (127 mM NaCl, 2 mM MgCl2, 700 μM NaH2PO4, 5 mM CaCl2, 5 mM NaHCO3, 8 mM HEPES, 10 mM glucose, pH 7.4), then loaded with 0.1 mL of LTCC wash buffer containing Fluo-4 (3 μM final concentration, Molecular Probes, Eugene, Oreg.). After 1 hour, the cells were washed with 0.1 mL LTCC wash buffer and resuspended in 0.05 mL LTCC assay buffer (same composition as LTCC wash buffer). Plates were then transferred to a FLIPR^96 for assay. The FLIPR measured basal Fluo-4 fluorescence for 15 seconds, then is added 0.05 mL of each compound tested diluted in LTCC assay buffer at final concentrations ranging from about 846 pM to about 17 μM. Fluo-4 fluorescence was then measured for 5 minutes. 0.1 mL KCl agonist dissolved in LTCC assay buffer was then added to the cells to produce a final concentration of 90 mM KCl, and fluorescence was measured for another 45 seconds. Data were collected over the entire time course and analyzed using Excel, Graph Pad Prism, or an in-house regression analysis software.

T1 sequence (Q00975 whole entry): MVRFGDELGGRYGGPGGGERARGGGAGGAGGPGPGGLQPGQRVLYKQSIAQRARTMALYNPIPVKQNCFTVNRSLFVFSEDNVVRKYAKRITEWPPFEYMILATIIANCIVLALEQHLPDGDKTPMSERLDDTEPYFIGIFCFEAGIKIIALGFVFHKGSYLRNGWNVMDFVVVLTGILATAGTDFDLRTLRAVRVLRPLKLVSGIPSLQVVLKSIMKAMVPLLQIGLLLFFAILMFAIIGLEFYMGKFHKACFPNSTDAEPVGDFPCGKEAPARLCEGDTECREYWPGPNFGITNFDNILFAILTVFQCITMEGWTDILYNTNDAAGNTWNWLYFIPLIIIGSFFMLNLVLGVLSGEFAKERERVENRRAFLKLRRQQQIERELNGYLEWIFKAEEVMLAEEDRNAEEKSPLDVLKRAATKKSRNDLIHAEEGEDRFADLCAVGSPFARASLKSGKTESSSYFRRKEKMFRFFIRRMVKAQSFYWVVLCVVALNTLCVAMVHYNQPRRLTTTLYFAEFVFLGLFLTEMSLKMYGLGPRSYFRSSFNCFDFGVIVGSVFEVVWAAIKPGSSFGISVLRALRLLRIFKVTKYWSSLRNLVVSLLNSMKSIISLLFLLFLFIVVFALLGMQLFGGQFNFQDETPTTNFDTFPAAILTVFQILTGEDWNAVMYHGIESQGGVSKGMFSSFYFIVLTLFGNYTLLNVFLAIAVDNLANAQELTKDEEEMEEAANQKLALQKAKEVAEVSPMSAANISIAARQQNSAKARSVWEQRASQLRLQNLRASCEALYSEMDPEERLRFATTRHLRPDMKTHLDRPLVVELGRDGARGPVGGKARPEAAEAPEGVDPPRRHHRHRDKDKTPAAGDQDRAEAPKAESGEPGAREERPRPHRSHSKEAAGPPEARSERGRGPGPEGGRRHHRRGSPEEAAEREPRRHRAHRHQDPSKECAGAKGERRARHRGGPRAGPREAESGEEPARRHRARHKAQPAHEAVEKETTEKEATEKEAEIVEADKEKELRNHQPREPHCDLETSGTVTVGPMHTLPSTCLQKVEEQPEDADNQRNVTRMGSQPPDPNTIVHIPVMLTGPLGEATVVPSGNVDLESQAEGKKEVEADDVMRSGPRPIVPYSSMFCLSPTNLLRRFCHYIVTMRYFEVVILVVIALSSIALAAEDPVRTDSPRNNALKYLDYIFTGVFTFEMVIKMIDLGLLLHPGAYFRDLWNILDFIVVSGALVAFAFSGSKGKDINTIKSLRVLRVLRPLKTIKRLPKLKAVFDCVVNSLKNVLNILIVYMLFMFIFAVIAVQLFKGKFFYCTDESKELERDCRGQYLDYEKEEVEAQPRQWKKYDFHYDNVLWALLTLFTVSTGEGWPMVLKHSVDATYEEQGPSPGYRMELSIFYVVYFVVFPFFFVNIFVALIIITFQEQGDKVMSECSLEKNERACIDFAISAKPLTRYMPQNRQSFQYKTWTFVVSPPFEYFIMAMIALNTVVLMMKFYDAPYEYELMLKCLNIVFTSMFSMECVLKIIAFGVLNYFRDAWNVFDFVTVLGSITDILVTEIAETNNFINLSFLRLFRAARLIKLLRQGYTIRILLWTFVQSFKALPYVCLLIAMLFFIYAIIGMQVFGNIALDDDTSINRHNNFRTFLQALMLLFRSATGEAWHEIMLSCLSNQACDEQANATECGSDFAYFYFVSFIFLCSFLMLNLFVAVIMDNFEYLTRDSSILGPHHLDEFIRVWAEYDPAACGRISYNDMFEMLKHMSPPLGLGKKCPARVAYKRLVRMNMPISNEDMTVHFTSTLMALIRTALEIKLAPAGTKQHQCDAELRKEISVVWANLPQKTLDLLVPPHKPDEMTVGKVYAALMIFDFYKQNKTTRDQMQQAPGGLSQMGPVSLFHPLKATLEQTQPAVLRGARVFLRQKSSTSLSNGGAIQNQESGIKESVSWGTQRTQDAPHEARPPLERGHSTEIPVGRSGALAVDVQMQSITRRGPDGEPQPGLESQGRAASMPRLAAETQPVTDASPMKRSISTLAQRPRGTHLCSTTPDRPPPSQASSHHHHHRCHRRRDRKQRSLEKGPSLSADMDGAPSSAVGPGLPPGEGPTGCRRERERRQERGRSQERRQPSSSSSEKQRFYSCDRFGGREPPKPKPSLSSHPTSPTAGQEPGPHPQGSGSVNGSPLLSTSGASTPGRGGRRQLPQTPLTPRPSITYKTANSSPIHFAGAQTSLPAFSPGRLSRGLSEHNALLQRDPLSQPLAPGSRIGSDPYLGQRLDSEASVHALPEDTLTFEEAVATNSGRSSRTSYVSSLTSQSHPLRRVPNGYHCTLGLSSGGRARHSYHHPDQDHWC
T1 sequence (P54289 25-956 partner limits assumed): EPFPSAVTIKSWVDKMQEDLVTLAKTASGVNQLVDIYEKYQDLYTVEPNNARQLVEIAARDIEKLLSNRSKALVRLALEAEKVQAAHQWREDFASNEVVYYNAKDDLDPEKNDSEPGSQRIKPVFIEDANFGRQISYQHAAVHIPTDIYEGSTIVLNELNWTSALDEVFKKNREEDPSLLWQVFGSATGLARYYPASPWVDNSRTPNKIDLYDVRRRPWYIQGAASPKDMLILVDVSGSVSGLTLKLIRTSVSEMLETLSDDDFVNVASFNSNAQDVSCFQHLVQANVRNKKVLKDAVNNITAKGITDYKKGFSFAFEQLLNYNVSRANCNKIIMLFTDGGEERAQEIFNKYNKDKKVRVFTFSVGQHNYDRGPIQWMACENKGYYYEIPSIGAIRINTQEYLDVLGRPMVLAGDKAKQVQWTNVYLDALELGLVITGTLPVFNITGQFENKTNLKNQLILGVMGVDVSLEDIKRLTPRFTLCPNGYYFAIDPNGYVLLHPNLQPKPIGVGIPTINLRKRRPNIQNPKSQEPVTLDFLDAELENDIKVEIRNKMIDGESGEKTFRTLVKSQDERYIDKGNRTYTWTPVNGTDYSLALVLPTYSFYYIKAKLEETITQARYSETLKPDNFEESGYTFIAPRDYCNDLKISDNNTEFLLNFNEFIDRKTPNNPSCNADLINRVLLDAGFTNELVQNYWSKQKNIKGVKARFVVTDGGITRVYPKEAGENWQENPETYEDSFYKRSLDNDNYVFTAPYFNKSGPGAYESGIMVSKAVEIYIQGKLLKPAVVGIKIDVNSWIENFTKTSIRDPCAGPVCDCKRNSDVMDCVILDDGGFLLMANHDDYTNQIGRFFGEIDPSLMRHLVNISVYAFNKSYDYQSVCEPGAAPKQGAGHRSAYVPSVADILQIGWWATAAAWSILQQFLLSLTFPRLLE
T1 sequence (P54289 957-1103 partner limits assumed): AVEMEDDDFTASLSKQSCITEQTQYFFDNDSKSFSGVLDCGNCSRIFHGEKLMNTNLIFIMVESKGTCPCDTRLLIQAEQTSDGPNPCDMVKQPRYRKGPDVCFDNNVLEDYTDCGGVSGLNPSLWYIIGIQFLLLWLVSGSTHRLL
T1 sequence (P54284 whole entry partner): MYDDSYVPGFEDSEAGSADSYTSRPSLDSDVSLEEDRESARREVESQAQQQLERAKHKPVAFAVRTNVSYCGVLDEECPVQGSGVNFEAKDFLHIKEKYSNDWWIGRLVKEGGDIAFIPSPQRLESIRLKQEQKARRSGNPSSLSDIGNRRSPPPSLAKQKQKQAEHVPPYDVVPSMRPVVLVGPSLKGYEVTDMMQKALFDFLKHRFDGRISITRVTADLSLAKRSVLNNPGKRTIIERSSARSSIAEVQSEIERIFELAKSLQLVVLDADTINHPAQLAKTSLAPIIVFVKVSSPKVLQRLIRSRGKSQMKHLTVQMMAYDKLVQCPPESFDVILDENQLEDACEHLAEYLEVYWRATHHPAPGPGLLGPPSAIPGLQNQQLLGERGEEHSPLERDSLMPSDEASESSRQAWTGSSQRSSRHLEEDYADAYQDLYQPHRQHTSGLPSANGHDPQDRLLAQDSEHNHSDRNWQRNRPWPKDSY

Regarding `CC(C)N(C1CCN(CCCN(c2ccc(F)cc2)c2ccc(F)cc2)CC1)S(=O)(=O)c1cccc(C(F)(F)F)c1` [Compound 8, N-(1-{3-[Bis(4-fluorophenyl)amino]propyl}piperidin-4-yl)-N-isopropyl-3-trifluoromethylbenzenesulfonamide], the concentration for half-maximal inhibition (IC50) in assay [1] is 620 nM; in assay [2], more than 20000 nM.

In the case of `O=C(Nc1ccc(F)cc1)C(=O)N1CCC(N(C2CC2)S(=O)(=O)c2cccc(C(F)(F)F)c2)CC1` [Compound 22, 2-{4-[Cyclopropyl-(3-trifluoromethylbenzenesulfonyl)amino]-piperidin-1-yl}-N-(4-fluorophenyl)-2-oxo-acetamide], the figures for the IC50 in assay [1] and in assay [2] were 700 nM and more than 20000 nM, respectively.

As to `O=C(CC(=O)N1CCC(N(C2CC2)S(=O)(=O)c2cccc(C(F)(F)F)c2)CC1)Nc1ccc(F)cc1` [Compound 26, 3-{4-[Cyclopropyl-(3-trifluoromethylbenzenesulfonyl)amino]-piperidin-1-yl}-N-(4-fluorophenyl)-3-oxo-propionamide], the IC50 in assay [1] worked out at 440 nM; in assay [2], 3780 nM.

As for `CC(C)CNC(=O)CN1CCC(N(C(C)C)S(=O)(=O)c2cccc(C(F)(F)F)c2)CC1` [Compound 34, N-Isobutyl-2-{4-[isopropyl-(3-trifluoromethylbenzenesulfonyl)amino]-piperidin-1-yl}-acetamide], the IC50 was 320 nM in assay [1] and 9080 nM in assay [2].

For `CCN(CC)C(=O)CN1CCC(N(C2CC2)S(=O)(=O)c2cccc(C(F)(F)F)c2)CC1` [Compound 38, 2-{4-[Cyclopropyl-(3-trifluoromethylbenzenesulfonyl)amino]-piperidin-1-yl}-N,N-diethylacetamide], the IC50 was found to be 840 nM in assay [1] and 3260 nM in assay [2].

As for `Cc1ccccc1NC(=O)CN1CCC(N(C(C)C)S(=O)(=O)c2cccc(C(F)(F)F)c2)CC1` [Compound 42b, 2-{4-[Isopropyl-(3-trifluoromethylbenzenesulfonyl)amino]-piperidin-1-yl}-N-o-tolyl-acetamide], the IC50 in assay [1] was 460 nM; in assay [2] it was 3230 nM.

With `CCOc1ccccc1NC(=O)CN1CCC(N(C(C)C)S(=O)(=O)c2cccc(C(F)(F)F)c2)CC1` [Compound 42c, N-(2-Ethoxyphenyl)-2-{4-[isopropyl-(3-trifluoromethylbenzenesulfonyl)amino]-piperidin-1-yl}-acetamide], the IC50 turned out to be 110 nM in assay [1] and 9540 nM in assay [2].

As for `Cc1cccc(NC(=O)CN2CCC(N(C(C)C)S(=O)(=O)c3cccc(C(F)(F)F)c3)CC2)c1` [Compound 42d, 2-{4-[Isopropyl-(3-trifluoromethylbenzenesulfonyl)amino]-piperidin-1-yl}-N-m-tolyl-acetamide], the IC50 was 450 nM in assay [1] and more than 20000 nM in assay [2].

Turning to `CC(C)c1ccc(NC(=O)CN2CCC(N(C(C)C)S(=O)(=O)c3cccc(C(F)(F)F)c3)CC2)cc1` [Compound 42f, N-(4-Isopropylphenyl)-2-{4-[isopropyl-(3-trifluoromethylbenzenesulfonyl)amino]-piperidin-1-yl}-acetamide], the IC50 in assay [1] is 630 nM; in assay [2], more than 20000 nM.

For the molecule `CC(C)N(C1CCN(CC(=O)Nc2ccc(C#N)cc2)CC1)S(=O)(=O)c1cccc(C(F)(F)F)c1` [Compound 42g, N-(4-Cyanophenyl)-2-{4-[isopropyl-(3-trifluoromethylbenzenesulfonyl)amino]-piperidin-1-yl}-acetamide], the figures for the IC50 in assay [1] and in assay [2] were 180 nM and 2510 nM, respectively.

In the case of `COc1ccc(NC(=O)CN2CCC(N(C(C)C)S(=O)(=O)c3cccc(C(F)(F)F)c3)CC2)cc1` [Compound 42h, 2-{4-[isopropyl-(3-trifluoromethylbenzenesulfonyl)amino]-piperidin-1-yl}-N-(4-methoxyphenyl)acetamide], the IC50 amounted to 460 nM in assay [1] and 5320 nM in assay [2].

As for `CC(C)N(C1CCN(CC(=O)Nc2nc3ccc(F)cc3s2)CC1)S(=O)(=O)c1cccc(C(F)(F)F)c1` [Compound 42i, N-(6-Fluorobenzothiazol-2-yl)-2-{4-[isopropyl-(3-trifluoromethylbenzenesulfonyl)amino]-piperidin-1-yl}-acetamide], the 50% inhibitory concentration (IC50) in assay [1] is 670 nM; in assay [2], more than 20000 nM.

Regarding `CC(C)N(C1CCN(C(=O)C(N)Cc2cccc3ccccc23)CC1)S(=O)(=O)c1cccc(C(F)(F)F)c1` (stereo not drawn) [N-[1-(2-amino-3-naphthalen-1-yl-propionyl)-piperidin-4-yl]-N-isopropyl-3-trifluoromethyl-benzenesulfonamide], the IC50 in assay [1] was found to be 2550 nM.

For the molecule `C=CCC(N)C(=O)N1CCC(N(C(C)C)S(=O)(=O)c2cccc(C(F)(F)F)c2)CC1` (stereo not drawn) [N-[1-(2-amino-pent-4-enoyl)-piperidin-4-yl]-N-isopropyl-3-trifluoromethyl-benzenesulfonamide], the IC50 in assay [1] was 2940 nM.

For the molecule `C#CCC(N)C(=O)N1CCC(N(C(C)C)S(=O)(=O)c2cccc(C(F)(F)F)c2)CC1` (stereo not drawn) [N-[1-(2-amino-pent-4-ynoyl)-piperidin-4-yl]-N-isopropyl-3-trifluoromethyl-benzenesulfonamide], in assay [1], the IC50 is 5960 nM.

In the case of `CC(C)N(C1CCN(C(=O)CC(N)c2cccs2)CC1)S(=O)(=O)c1cccc(C(F)(F)F)c1` (stereo not drawn) [N-[1-(3-amino-3-thiophen-2-yl-propionyl)-piperidin-4-yl]-N-isopropyl-3-trifluoromethyl-benzenesulfonamide], in assay [1], the IC50 was 1100 nM.

Regarding `CC(C)N(C1CCN(C(=O)C2(N)CCOCC2)CC1)S(=O)(=O)c1cccc(C(F)(F)F)c1` [N-[1-(4-amino-tetrahydro-pyran-4-carbonyl)-piperidin-4-yl]-N-isopropyl-3-trifluoromethyl-benzenesulfonamide], the IC50 in assay [1] is 8330 nM.

In the case of `CC(C)N(C1CCN(C(=O)C2CNC2)CC1)S(=O)(=O)c1cccc(C(F)(F)F)c1` [N-[1-(azetidine-3-carbonyl)-piperidin-4-yl]-N-isopropyl-3-trifluoromethyl-benzenesulfonamide], the IC50 in assay [1] turned out to be 2910 nM.

As to `COc1ccc(NCCC(=O)N2CCC(N(C(C)C)S(=O)(=O)c3cccc(C(F)(F)F)c3)CC2)cc1` [N-isopropyl-N-{1-[3-(4-methoxy-phenylamino)-propionyl]-piperidin-4-yl}-3-trifluoromethyl-benzenesulfonamide], in assay [1], the IC50 stood at 1000 nM.

As to `CC(C)N(C1CCN(C(=O)CCNc2cccc(F)c2)CC1)S(=O)(=O)c1cccc(C(F)(F)F)c1` [N-{1-[3-(3-fluoro-phenylamino)-propionyl]-piperidin-4-yl}-N-isopropyl-3-trifluoromethyl-benzenesulfonamide], the IC50 in assay [1] was found to be 1040 nM.

In the case of `CC(C)N(C1CCN(C(=O)CCNc2ccc(C#N)cc2)CC1)S(=O)(=O)c1cccc(C(F)(F)F)c1` [N-{1-[3-(4-cyano-phenylamino)-propionyl]-piperidin-4-yl}-N-isopropyl-3-trifluoromethyl-benzenesulfonamide], the IC50 in assay [1] was determined as 1390 nM.

As a reminder, the IC50 is the concentration needed to halve the response being measured.

These data come from patent US8791264B2 (Purdue Pharma L.P., priority 2006, dated 2014).
